Assay results as given in patent US7078389B2, “Chemically modified oligonucleotide for site-directed mutagenesis” (priority 1993, dated 2006).
Several values for one entry are separate records, joined by “and”; a condition that tells them apart may be missing. Identical values can stand only once.

How the values were obtained:
[1] = tested on: lambda repressor (cI) gene; experiment: Non-targeted mutagenesis of cI gene in lambda supF DNA; set-up: species or system lambda phage; conditions: for cI mutations per 1000 phage: lambda DNA 3 nM, oligonucleotide 3 μM, UVA 1.8 J/cm^2
Method: Targeted mutagenesis was achieved by incubating pso-AG10 with lambda supF DNA in vitro to form triplex at positions 167 to 176 of the supF gene and bring the tethered psoralen into proximity with the targeted base pair at position 167 as shown in Table 1. The numbers in the table represent the frequency of mutations seen in either the supF gene or the cI gene in the lambda supF genome following the indicated treatment. The lambda DNA at 3 nM was incubated with or without a 1000-fold molar excess of the indicated oligonucleotides (3 μM) as described in FIG. 2.
UVA (365 nm) irradiation of selected samples was performed at a dose of 1.8 J/cm^2. A radiometer was used to measure lamp output (typical UVA irradiance of 5–7 mW/cm^2 at 320–400 nm). The DNA was packaged in vitro into phage particles, using the method of Hohn, Methods in Enzymology 68:299–309 (1979), and the phage particles were adsorbed to E. coli and grown as individual plaques to allow genetic analyses of the supF and cI genes.
Photoactivation of the psoralen generated a DNA adduct, and in vitro packaging of the psoralen-AG10. The lambda supF DNA complex allowed growth of the phage in bacteria to fix the adduct into a mutation. The phage particles were grown as individual plaques on a bacterial lawn to detect targeted mutagenesis in the supF gene and to measure the extent of non-targeted mutagenesis by screening for the function of an unrelated gene, the lambda repressor (cI) gene. Mutations in these genes yield colorless plaques among blue ones and clear plaques among turbid ones, respectively.

[2] = tested on: supF gene within the pSP189 SV40 vector; experiment: SV40 mutagenesis: vector DNA passaged in COS-7 cells; type: cell-based, monkey
Method: FIG. 3 is a schematic representation of the strategy for targeted mutagenesis of SV40 DNA. The 10 base triplex-forming oligonucleotide, psoralen-AG10 (4′hydroxymethyl-4,5′,8-trimethylpsoralen-5′[…]3′) (SEQ ID NO:1), is shown directly above its targeted sequence in the supF gene (base pairs 167–176), contained within the SV40 vector, pSP189. Psoralen-AG10 is incubated with the SV40 vector DNA to allow site-specific triplex formation. Photoactivation of the psoralen by irradiation with long wave ultraviolet light (320–400 nm) is designed to generate an adduct at the targeted base pair (167), as indicated by the arrow. The oligo-plasmid complex is then transfected into monkey COS-7 cells and allowed to replicate for 48 hours. Following purification of the vector DNA by the Hirt lysate procedure (Hirt et al., J. Mol. Biol. 26:365–369 (1967)), the DNA is used to transform E. coli SY204 lacZ125 (Am).
SV40 mutagenesis. The SV40 vector DNA (pSP189) at 80 nM was incubated with psoralen-AG10 or psoralen-GA10 (ranging from 2 to 1000-fold molar excess) and irradiated as described above. The oligonucleotide-plasmid complex was then transfected into monkey COS-7 cells (ATCC #1651-CRL) using cationic liposomes (DOTAP, Boehringer Manheim, Indianapolis, Ind.) at a final concentration of 5 μg/ml in the culture dish. The DNA/oligo/liposome mixture was added dropwise to the cell culture dish with swirling. The following day, the media containing the liposome mixture was replaced by fresh media. Following 48 hours to allow repair and replication, SV40 vector DNA was harvested from the COS cells by the Hirt lysate procedure. Genetic analysis of the supF genes in the SV40 vector was carried out by transformation of E. coli SY204 [lacZ125(Am)] to ampicillin resistance by electroporation using 12–150 ng of Dpn I digested Hirt lysate DNA and a Bio-Rad Gene Pulser apparatus equipped with a Pulse Controller (Bio-Rad, Richmond, Calif.). Mutants were identified by growth in the presence of 65 μg/ml IPTG and 80 μg/ml X-Gal, as described by (Glazer et al., Mol. Cell Biol. 7:218–224 (1987)). These transformants were counted and the mutants (white colonies) were streaked for single colonies.
In this vector system, the SV40 DNA, after appropriate treatment, is introduced into monkey COS cells where repair and replication can occur, producing mutations indicative of mammalian processing of DNA damage. The small, circular vector DNA is recovered from the cells by biochemical separation from the chromosomal DNA (Hirt lysate, Hirt et al., J. Mol. Biol. 26:365–369 (1967)), and it is used to transform E. coli carrying the lacZ (amber) mutation to allow analysis of supF gene function by scoring colonies for β-galactosidase activity (produced via suppression of the amber mutation in lacZ) in the presence of the chromogenic substrate, X-gal. Vectors with wild type supF genes yield blue colonies; those with mutations in supF produce white ones. In order to eliminate misleading data that might arise from viral DNA that was not replicated or repaired in the mammalian cells, the viral DNA is digested before bacterial transformation with the enzyme Dpn I which will restrict DNA that has not been methylated by the mammalian pattern at its recognition site.
The design of the initial experiments to target mutations to SV40 DNA is illustrated in FIG. 3. A 10 base pair region of the supF gene (bp 167–176) was identified as a site amenable to triplex formation because of the homopurine/homopyrimidine run there. Since this run was G-rich, the purine motif for triplex formation was selected (Beal and Dervan, Science 251:1360–1363 (1991)), and an oligonucleotide, 5′[…]3′ (SEQ ID NO:2) (AG10) was synthesized based on this motif. A psoralen derivative, 4′-hydroxymethyl-4,5′,8-trimethylpsoralen, was attached to the oligonucleotide by a phosphodiester linkage at the 5′ adenine via a two carbon linker arm, with the goal of directing mutations to base pair 167.

[3] = ratio of oligo to vector 2:1, UVA 1.8 J/cm^2
[4] = ratio of oligo to vector 5:1, UVA 1.8 J/cm^2
[5] = ratio of oligo to vector 10:1, UVA 1.8 J/cm^2
[6] = ratio of oligo to vector 1000:1, no UVA

Substance	cI mutations per 1000 phage [1]	cI mutation frequency ([1]; plus UVA 1.8 J/cm^2)	Fold higher targeted mutagenesis in SV40 than in bacteriophage lambda grown in E. coli ([2]; 6% to 7% versus 0.23%)	% mutants (supF gene) [2, 3]	% mutants (supF gene) [2, 4]	% mutants (supF gene) [2, 5]	% mutants (supF gene) ([2]; ratio of oligo to vector 1000:1, UVA 1.8 J/cm^2)	% mutants (supF gene) [2, 6]	Mutants per total colonies [2, 6]	supF mutagenesis relative to background ([2]; lower ratios of oligo to vector (below 1000:1), plus UVA)	% mutants (supF gene) ([2]; ratio of oligo to vector 1000:1, UVA 1.8 J/cm^2, listed as psoralen-GA10)
4′-hydroxymethyl-4,5′,8-trimethylpsoralen-^5′AGGAAGGGGG^3′ (DNA NAGGAAGGGGG; 4'-hydroxymethyl-4,5',8-trimethylpsoralen conjugated at 5' end, further chemistry not given here) [pso-AG10]	0.024 (28/1,162,000) per 1000 phage	0.0024%	30 fold	2.5%	4.3%	6.4%	7.3%	≦0.06%	0/1700		
pso-^5′GGGGGAAGGA^3′ (DNA NGGGGGAAGGA; psoralen conjugated at 5' end, further chemistry not given here) [pso-GA10, reference compound]	0.019 (9/483,475) per 1000 phage			0.07%	0.13%	0.06%		≦0.07%	0/1500	no significant mutagenesis above the background frequency	0.5% and 0.63%
